Values joined by “and” are separate entries in the source; they are usually repeats but may differ in a detail not shown here. Identical values can stand only once. Like-named read-outs stand apart in the source and are kept apart here. Where a SMILES comes first, the peptide text is derived from it. [ ]: non-standard residue; d: D form. The star is where a group is joined. NHCH2CH2OH = OCCN*; For = O=C*
Tests used:
[1] = tested on: MSSA1 (methicillin-susceptible Staphylococcus aureus); assay type: cell-based
Experimental: Evaluation of antibacterial spectra of purified peptides. The MIC assay was performed according to the Clinical and Laboratory Standards Institute protocols. The antibacterial activities of the purified peptides A1, B01–B04, B11–B13, B21, and B22 were measured using the broth microdilution method. 6 Serial dilutions of the peptides were prepared in cation adjusted Mueller Hinton Broth. Each dilution (100 µL) was dispensed to each well of the round-bottom plate to obtain final concentrations ranging from 64 µg/mL to 0.00024 µg/mL. Bacteria were grown at 37 °C overnight on Tryptic Soy Broth or Mueller Hinton Broth agar plates.
The bacterial colonies were suspended in 0.9% saline to obtain OD 625 of 0.08–0.13 using a spectrophotometer UV-1280 (Shimadzu). The resultant suspension was diluted with cation adjusted Mueller Hinton Broth (1/20). The resultant mixture (10 .0 µL) was inoculated to each well of the plates (approximately 5 × 10^4 CFU/well), mixed, and incubated at 37 °C for 18–24 h. The MIC value was determined as the minimum concentration that inhibited growth of bacteria. For Streptococcus species, cation adjusted Mueller Hinton Broth supplemented with 5% laked horse blood was used. […]

rabbit red blood cells = conditions: red cells of rabbit, 2 h
Experimental: Second, we examined the cytotoxicity toward mammalian cancer cells and hemolytic activity of 1. […] Hemolytic activity was evaluated by monitoring hemoglobin leakage from rabbit red blood cells as a consequence of membrane damage. The concentration of 1 required to cause 10% hemoglobin leakage (HC10) was 160 nM. Thus, the P388 cytotoxicity of 1 was 28-fold more sensitive than its hemolytic activity.
Hemolysis assay of purified peptides. […]
with DMSO to various concentrations as 3-fold serial dilution. A 50% suspension of rabbit blood in Alsever's solution was obtained from Nippon Bio -Supp. Center . The blood suspension (250 µL) w as diluted with phosphate buffered saline (no calcium, no magnesium, 1.00 mL). The resultant suspension was centrifuged at 1000 × g for 3 min at 8 °C. The supernatant was discarded, and the collected cells were resuspended in phosphate buffered saline (no calcium, no magnesium, 1.00 mL). The same procedure was repeated (× 3). The resultant suspension (100 µL) was diluted with phosphate buffered saline (no calcium, no magnesium, 4.90 mL) to give 0.2% red blood cells suspension. The 0.2% red blood cells suspension (95.0 µL) and each dilution series of the purified peptide in DMSO (5 .0 µL) were mixed in 2 mL microtube.
supernatant was transferred to a 96-well plate (TR5003, TrueLine). The absorbance of each well at 415 nm was measured using a Thermo Scientific Multiskan GO (Thermo Fisher Scientific). The mixture of Triton X-100/H2O (5/95, 2.0 µL), DMSO (5.0 µL), and the 0.2% red blood cells suspension (95.0 µL) was used to determine 100% hemolysis. The mixture of DMSO (5.0 µL) and the 0.2% red blood cells suspension (95.0 µL) was used to determine 0% hemolysis. The hemolytic activities of tested peptides ( I) were normalized against 100% hemolysis by Triton X -100 (Imax) and 0% hemolysis by DMSO (I0) according to Supplementary Equation 3, where Ix is the UV absorbance.
I = 100 × (Ix – I0) / (Imax – I0) (3)
The hemolytic activities of the purified peptides were evaluated as the concentrations causing 10% hemolysis (HC10, nM) by means of three replicates. Sigmoidal curve fittings were performed on GraphPad Prism (GraphPad software, Supplementary Figure 7).

[2] = H+/Na+ transport assay of purified peptides; conditions: for Supplementary Figure 5 dose-response value (H+/Na+ transport): three replicate lines
Experimental: First, we evaluated the ion channel function of 1 using liposomes. To mimic a negatively charged Gram-positive bacterial membrane, the liposomes were prepared as large unilamellar vesicles (LUVs) comprising a 19:1 mixture of egg yolk phosphatidylcholine (EYPC) and egg yolk phosphatidylglycerol (EYPG)[57]. Pyranine, a pH-dependent fluorescent dye[58], was encapsulated in the LUVs and a pH gradient was applied across the membrane. H^+/Na^+ transport induced by a peptide was monitored by changes in the fluorescence intensity of pyranine.

[3] = read-out: EC50, H+/Na+ transport assay, 1st experiment
[4] = read-out: EC50, H+/Na+ transport assay, 2nd experiment
[5] = read-out: EC50, H+/Na+ transport assay, 3rd experiment
[6] = read-out: H+/Na+ transport activity EC50, EYPC/EYPG (19:1) LUVs
[7] = read-out: H+/Na+ transport activity/EC50, mean ± SD of three independent experiments

| Structure (SMILES) | antibacterial activity/MIC [1] | Hemolytic activity HC10 (concentration causing 10% hemolysis) (rabbit red blood cells) | Supplementary Figure 5 dose-response value (H+/Na+ transport) ([2]; concentration 0.000512 nM) | Supplementary Figure 5 dose-response value (H+/Na+ transport) ([2]; concentration 0.00256 nM) | Supplementary Figure 5 dose-response value (H+/Na+ transport) ([2]; concentration 0.0128 nM) | Supplementary Figure 5 dose-response value (H+/Na+ transport) ([2]; concentration 0.064 nM) | Supplementary Figure 5 dose-response value (H+/Na+ transport) ([2]; concentration 0.32 nM) | Supplementary Figure 5 dose-response value (H+/Na+ transport) ([2]; concentration 1.6 nM) | Supplementary Figure 5 dose-response value (H+/Na+ transport) ([2]; concentration 8 nM) | Supplementary Figure 5 dose-response value (H+/Na+ transport) ([2]; concentration 40 nM) | Supplementary Figure 5 dose-response value (H+/Na+ transport) ([2]; concentration 200 nM) | Supplementary Figure 5 dose-response value (H+/Na+ transport) ([2]; concentration 1000 nM) | Supplementary Figure 5 dose-response value (H+/Na+ transport) ([2]; concentration 5000 nM) | EC50 [2, 3] | EC50 [2, 4] | EC50 [2, 5] | EC50 [2, 6] | EC50 [2, 7] |
| --- | --- | --- | --- | --- | --- | --- | --- | --- | --- | --- | --- | --- | --- | --- | --- | --- | --- | --- |
| CC(C)C[C@@H](NC(=O)[C@H](Cc1c[nH]c2ccccc12)NC(=O)[C@H](NC(=O)[C@@H](NC(=O)[C@H](NC(=O)[C@H](C)NC(=O)[C@H](NC(=O)[C@H](C)NC(=O)CNC(=O)[C@@H](NC=O)C(C)C)C(C)C)C(C)C)C(C)C)C(C)C)C(=O)N[C@@H](Cc1c[nH]c2ccccc12)C(=O)N[C@@H](C(=O)N[C@@H](Cc1c[nH]c2ccccc12)C(=O)N[C@@H](C(=O)N[C@@H](Cc1c[nH]c2ccccc12)C(=O)NCCO)C(C)C)C(C)C [B01] (For-VGA[dV]A[dV]V[dV]W[dL]W[dV]W[dV]W-NHCH2CH2OH) | 16 µg/mL | 1100 nM | 1.909 and 4.796 and 3.187 | 2.582 and 3.582 and 5.168 | 3.806 and 6.172 and 6.274 | 6.1 and 7.567 and 7.349 | 11.2834 and 14.5673 and 12.3484 | 32.2794 and 31.2161 and 30.2392 | 59.2885 and 57.8145 and 59.5121 | 71.8328 and 71.2991 and 68.3245 | 69.4784 and 69.9514 and 71.5477 | 71.9268 and 73.661 and 73.9278 | 81.6644 and 79.4929 and 76.8567 | 2.67 nM | 1.67 nM | 2.49 nM | 2.3 nM | 2.28 ± 0.54 nM |
| CC(C)C[C@@H](NC(=O)[C@H](C)NC(=O)CNC(=O)[C@@H](NC=O)C(C)C)C(=O)N[C@@H](C)C(=O)N[C@H](CC(C)C)C(=O)N[C@H](C(=O)N[C@H](CC(C)C)C(=O)N[C@@H](Cc1c[nH]c2ccccc12)C(=O)N[C@H](CC(C)C)C(=O)N[C@@H](Cc1c[nH]c2ccccc12)C(=O)N[C@@H](C(=O)N[C@@H](Cc1c[nH]c2ccccc12)C(=O)N[C@@H](C(=O)N[C@@H](Cc1c[nH]c2ccccc12)C(=O)NCCO)C(C)C)[C@H](C)O)C(C)C [B11] (For-VGA[dL]A[dL]V[dL]W[dL]W[dT]W[dV]W-NHCH2CH2OH) | 8 µg/mL | 910 nM | 2.871 and 2.386 and 5.02 | 3.181 and 2.224 and 1.333 | 4.586 and 1.99 and 1.993 | 7.716 and 4.162 and 7.014 | 12.4442 and 13.4783 and 13.1353 | 25.1993 and 24.5125 and 22.5261 | 38.4333 and 37.5732 and 33.164 | 66.9626 and 64.2822 and 61.6393 | 70.7655 and 66.8425 and 69.2783 | 70.5972 and 73.9169 and 73.5278 | 72.3937 and 72.1348 and 73.2071 | 6.44 nM | 2.58 nM | 7.92 nM | 5.7 nM | 5.65 ± 2.76 nM |
| CC(C)C[C@@H](NC(=O)[C@H](C)NC(=O)CNC(=O)[C@@H](NC=O)C(C)C)C(=O)N[C@@H](C)C(=O)N[C@@H](C(=O)N[C@H](C(=O)N[C@@H](C(=O)N[C@@H](Cc1c[nH]c2ccccc12)C(=O)N[C@@H](C(=O)N[C@@H](Cc1c[nH]c2ccccc12)C(=O)N[C@H](CC(C)C)C(=O)N[C@@H](Cc1c[nH]c2ccccc12)C(=O)N[C@@H](C(=O)N[C@@H](Cc1c[nH]c2ccccc12)C(=O)NCCO)C(C)C)C(C)C)C(C)C)C(C)C)C(C)C [B04] (For-VGA[dL]A[dV]V[dV]W[dV]W[dL]W[dV]W-NHCH2CH2OH) | 32 µg/mL | 1100 nM | -0.2346 and 0.9427 and 1.027 | 1.3317 and 0.8542 and 1.548 | -1.2605 and 2.862 and -0.09432 | 5.945 and 3.111 and 2.028 | 10.5694 and 12.3828 and 8.56 | 26.4566 and 23.815 and 22.5252 | 54.4909 and 53.2036 and 54.0987 | 70.9935 and 73.4781 and 68.8062 | 73.8391 and 72.9169 and 76.5429 | 75.0683 and 78.833 and 77.3632 | 78.0479 and 76.1013 and 78.9016 | 3.43 nM | 3.5 nM | 4.18 nM | 3.7 nM | 3.71 ± 0.42 nM |
| CC(C)C[C@@H](NC(=O)[C@H](C)NC(=O)CNC(=O)[C@@H](NC=O)C(C)C)C(=O)N[C@@H](C)C(=O)N[C@@H](C(=O)N[C@H](C(=O)N[C@@H](C(=O)N[C@@H](Cc1c[nH]c2ccccc12)C(=O)N[C@@H](C(=O)N[C@@H](Cc1c[nH]c2ccccc12)C(=O)N[C@@H](C(=O)N[C@@H](Cc1c[nH]c2ccccc12)C(=O)N[C@@H](C(=O)N[C@@H](Cc1c[nH]c2ccccc12)C(=O)NCCO)C(C)C)C(C)C)C(C)C)C(C)C)C(C)C)C(C)C [B03] (For-VGA[dL]A[dV]V[dV]W[dV]W[dV]W[dV]W-NHCH2CH2OH) | 32 µg/mL | 2000 nM | 3.426 and 4.542 and 4.454 | 4.063 and 4.369 and 6.1349 | 8.086 and 3.88 and 7.199 | 11.12 and 10.2864 and 11.0165 | 19.1274 and 20.4439 and 18.4811 | 44.4719 and 42.2282 and 45.2028 | 70.1046 and 68.0194 and 61.5034 | 68.5122 and 68.0449 and 67.6654 | 74.8622 and 71.9344 and 68.9589 | 72.6177 and 71.4474 and 69.5798 | 79.6141 and 83.2523 and 73.0858 | 1.77 nM | 1.01 nM | 1.18 nM | 1.3 nM | 1.32 ± 0.4 nM |
